Converted amounts (≈) assume the structure as drawn. The source made the active and inactive calls. No cut-off for these calls is given here.
Legend:
Staphylococcus aureus [1] = assay: Antibacterial activity against Staphylococcus aureus KCTC 1621 assessed as cell membrane disruption at 2 times MIC within 4 mins by Sytox Green dye based fluorescence spectrophotometer assay; assay type: functional, organism-based
Staphylococcus aureus [2] = assay: Antibacterial activity against Staphylococcus aureus KCTC 1621 assessed as cytoplasmic membrane depolarization at 2 times MIC by disC3-5 dye based fluorescence assay; assay type: functional, organism-based
Enterococcus faecium = assay: Antibacterial activity against Vancomycin-resistant Enterococcus faecium ATCC 51559 after 24 hrs; assay type: functional; details: ATCC 51559, 24 h

CC[C@H](C)[C@H](NC(=O)CN)C(=O)NCC(=O)N[C@@H](C)C(=O)N[C@H](C(=O)N[C@@H](CC(C)C)C(=O)N[C@@H](CCCCN)C(=O)N[C@H](C(=O)N[C@@H](CC(C)C)C(=O)N[C@H](C(=O)N[C@H](C(=O)NCC(=O)N[C@@H](CC(C)C)C(=O)N1CCC[C@H]1C(=O)N[C@@H](C)C(=O)N[C@@H](CC(C)C)C(=O)N[C@H](C(=O)N[C@@H](CO)C(=O)N[C@@H](Cc1c[nH]c2ccccc12)C(=O)N[C@H](C(=O)N[C@@H](CCCCN)C(=O)N[C@@H](CCCNC(=N)N)C(=O)N[C@@H](CCCCN)C(=O)N[C@@H](CCCNC(=N)N)C(=O)N[C@@H](CCC(N)=O)C(=O)N[C@@H](CCC(N)=O)C(N)=O)[C@@H](C)CC)[C@@H](C)CC)[C@@H](C)O)[C@@H](C)O)C(C)C)C(C)C [MELITTIN]
Activity (Staphylococcus aureus [1]): Active | Activity (Staphylococcus aureus [2]): Active | MIC (Enterococcus faecium): 16 µM (≈ 45.5 µg/mL)

— ChEMBL document CHEMBL4138105, “LL-37-derived short antimicrobial peptide KR-12-a5 and its d-amino acid substituted analogs with cell selectivity, anti-biofilm activity, synergistic effect with conventional antibiotics, and anti-inflammatory activity” (Eur J Med Chem, 2017)
